# From the supplement of paper PMC10331698
# ± gives the standard deviation of the averaged measurements.
# Assays:
# Assay in all cases: level (log10 ratio to DMSO vehicle control); higher = higher biomarker level / cell amount than vehicle control
# Conditions in all cases: in DMSO
# Perfluoroheptanoic acid = compound: O=C(O)C(F)(F)C(F)(F)C(F)(F)C(F)(F)C(F)(F)C(F)(F)F [Perfluoroheptanoic acid]
# Procedure: (§1)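 BioMAP Diversity Plus panel of 12 human primary cell co-culture systems (3C, 4H, LPS, SAg, BT, BF4T, BE3C, CASM3C, HDF3CGF, KF3CT, MyoF, Mphg). Compounds were added 1 h before stimulation and left for 24 h (MyoF 48 h; BT 72 h for soluble read-outs or 6 d for IgG). Biomarkers were read by ELISA, cytotoxicity by SRB, PBMC viability and proliferation by Alamar Blue. Each well value was divided by the mean of 8 DMSO control wells on the same plate and log10 transformed; duplicate blinded samples were tested at 4 concentrations.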
# Perfluorobutanoic acid = compound: O=C(O)C(F)(F)C(F)(F)C(F)(F)F [Perfluorobutanoic acid]
# Procedure: as §1
# [1] = compound: C=CC(F)(F)C(F)(F)C(F)(F)C(F)(F)C(F)(F)C(F)(F)C(F)(F)C(F)(F)C=C [1,8-Divinylperfluorooctane]
# Procedure: as §1
# [2] = compound: CCN(CCO)S(=O)(=O)C(F)(F)C(F)(F)C(F)(F)C(F)(F)C(F)(F)C(F)(F)C(F)(F)C(F)(F)F [N-Ethyl-N-(2-hydroxyethyl)perfluorooctanesulfonamide]
# Procedure: as §1
# [3] = compound: OCC(F)(F)OC(F)(F)C(F)(F)OC(F)(F)CO [1H,1H,8H,8H-Perfluoro-3,6-dioxaoctane-1,8-diol]
# Procedure: as §1
# [4] = compound: C=C(C)C(=O)OCCC(F)(F)C(F)(F)C(F)(F)C(F)(F)C(F)(C(F)(F)F)C(F)(F)F [(Perfluoro-5-methylhexyl)ethyl 2-methylprop-2-enoate]
# Procedure: as §1
# [5] = compound: O=C(O)C(F)(F)C(F)(F)C(F)F [4H-Perfluorobutanoic acid]
# Procedure: as §1
Test System,level (log10) (Perfluoroheptanoic acid; 6700 nM),level (log10) (Perfluoroheptanoic acid; 20000 nM),level (log10) (Perfluoroheptanoic acid; 60000 nM),level (log10) (Perfluorobutanoic acid; 6700 nM),level (log10) (Perfluorobutanoic acid; 20000 nM),level (log10) (Perfluorobutanoic acid; 60000 nM),level (log10) ([1]; 6700 nM),level (log10) ([1]; 20000 nM),level (log10) ([2]; 6700 nM),level (log10) ([2]; 20000 nM),level (log10) ([3]; 6700 nM),level (log10) ([3]; 20000 nM),level (log10) ([3]; 60000 nM),level (log10) ([4]; 6700 nM),level (log10) ([4]; 20000 nM),level (log10) ([5]; 6700 nM),level (log10) ([5]; 20000 nM),level (log10) ([5]; 60000 nM)
LPS:CD69,-0.0095 ± 0.0035,-0.025,-0.057 ± 0.013,-0.0005 ± 0.081,0.0145 ± 0.088,0.002 ± 0.075,-0.0135 ± 0.011,-0.008 ± 0.014,-0.134 ± 0.0028,-0.226 ± 0.0042,0.0335 ± 0.083,0.033 ± 0.042,0.0025 ± 0.029,-0.019 ± 0.069,-0.0145 ± 0.08,0.024 ± 0.035,0.02 ± 0.034,0.028 ± 0.028
LPS:CD106/VCAM-1,-0.014 ± 0.021,-0.0155 ± 0.025,-0.013 ± 0.025,-0.0095 ± 0.0021,-0.0075 ± 0.0021,-0.027 ± 0.033,-0.0145 ± 0.0092,-0.033 ± 0.0014,-0.0195 ± 0.023,-0.0395 ± 0.012,0.0185 ± 0.033,-0.02 ± 0.0042,-0.013 ± 0.033,0.0045 ± 0.016,-0.003 ± 0.035,-0.018 ± 0.0071,-0.0245 ± 0.011,-0.002 ± 0.025
LPS:CD141/Thrombomodulin,-0.0115 ± 0.03,0.002 ± 0.011,-0.035 ± 0.0099,-0.0035 ± 0.046,-0.0295 ± 0.05,0.008 ± 0.054,-0.0025 ± 0.00071,0.011 ± 0.021,0.117 ± 0.0042,0.201,0.004 ± 0.021,0.021 ± 0.018,-0.002 ± 0.014,0.0055 ± 0.0092,-0.0345 ± 0.021,-0.009,-0.012 ± 0.016,-0.008 ± 0.013
LPS:CD142/Tissue Factor,-0.0025 ± 0.005,-0.007 ± 0.013,0.0245 ± 0.005,0.0045 ± 0.037,-0.0205 ± 0.00071,-0.0045 ± 0.019,-0.035 ± 0.035,-0.043 ± 0.057,0.139 ± 0.038,0.312 ± 0.037,-0.006 ± 0.014,-0.0155 ± 0.021,-0.0135 ± 0.0035,0.032 ± 0.014,0.006 ± 0.014,-0.0205 ± 0.032,0.015 ± 0.033,0.0185 ± 0.0092
LPS:CXCL8/IL-8,0.0085 ± 0.033,0.027 ± 0.03,0.105 ± 0.059,-0.0055 ± 0.005,-0.0165 ± 0.00071,0.0095 ± 0.011,-0.0055 ± 0.005,0.0145 ± 0.0078,0.039 ± 0.0042,-0.003 ± 0.0028,0.002 ± 0.0071,0.0075 ± 0.015,0.0075 ± 0.039,0.006 ± 0.045,0.016 ± 0.047,-0.0155 ± 0.019,-0.008 ± 0.02,0.018 ± 0.024
LPS:IL-1alpha,-0.002 ± 0.0057,-0.0265 ± 0.0078,0.006 ± 0.047,-0.0225 ± 0.032,-0.0305 ± 0.019,-0.0035 ± 0.016,0.0095 ± 0.019,0.0295 ± 0.012,-0.098 ± 0.013,-0.141 ± 0.026,-0.0135 ± 0.00071,-0.022 ± 0.011,0.0345 ± 0.0092,-0.0515 ± 0.096,-0.0355 ± 0.023,-0.038 ± 0.0071,-0.02 ± 0.0085,-0.0065 ± 0.023
LPS:M-CSF,-0.028 ± 0.024,-0.008 ± 0.018,-0.007 ± 0.038,0.004 ± 0.014,-0.005 ± 0.016,0.003 ± 0.03,-0.029,-0.007 ± 0.031,0.0495 ± 0.033,0.104 ± 0.041,-0.015 ± 0.0042,-0.018 ± 0.031,0.007 ± 0.067,0.022 ± 0.02,0.006 ± 0.0042,-0.001 ± 0.042,-0.007 ± 0.014,-0.003 ± 0.035
LPS:SRB,-0.019 ± 0.0085,0.001 ± 0.0028,-0.019 ± 0.0099,-0.006 ± 0.028,-0.013 ± 0.0071,-0.001 ± 0.0099,-0.005 ± 0.0057,0.013 ± 0.0099,-0.0345 ± 0.0035,-0.084 ± 0.02,-0.0075 ± 0.012,-0.0125 ± 0.0092,-0.0205 ± 0.005,-0.001 ± 0.0028,-0.0085 ± 0.0021,-0.0045 ± 0.0035,-0.0105 ± 0.0092,0.003
LPS:sPGE2,0.0295 ± 0.005,-0.0185 ± 0.022,-0.0285 ± 0.059,-0.0045 ± 0.012,0.0155 ± 0.025,-0.0075 ± 0.0035,-0.005 ± 0.034,-0.035 ± 0.075,-0.023 ± 0.023,0.07 ± 0.0042,-0.0235 ± 0.019,-0.023 ± 0.045,-0.0195 ± 0.00071,-0.038 ± 0.05,-0.016 ± 0.064,0.0025 ± 0.054,-0.111 ± 0.054,-0.052 ± 0.013
LPS:sTNF-alpha,-0.0265 ± 0.054,-0.049 ± 0.0071,-0.0215 ± 0.046,-0.0195 ± 0.012,-0.0055 ± 0.0078,-0.041 ± 0.034,0.055 ± 0.016,0.035 ± 0.035,-0.006 ± 0.0028,-0.005 ± 0.0085,-0.0235 ± 0.025,-0.0435 ± 0.032,-0.0335 ± 0.022,0.0265 ± 0.04,0.0345 ± 0.063,0.0095 ± 0.043,0.0095 ± 0.023,0.004 ± 0.031
SAg:CCL2/MCP-1,-0.013 ± 0.0085,0.0215 ± 0.011,0.0215 ± 0.013,-0.012 ± 0.0028,-0.014,0.0175 ± 0.025,-0.001 ± 0.0028,0.004 ± 0.0014,-0.0055 ± 0.005,-0.091 ± 0.023,0.0085 ± 0.005,-0.0105 ± 0.012,0.011 ± 0.037,-0.014 ± 0.018,0.0065 ± 0.033,-0.011 ± 0.038,-0.0085 ± 0.04,-0.0065 ± 0.081
SAg:CD38,-0.02 ± 0.0042,-0.001 ± 0.0057,-0.0225 ± 0.03,-0.005,-0.013 ± 0.0085,-0.012 ± 0.0099,-0.009 ± 0.016,-0.0055 ± 0.0092,-0.027 ± 0.017,-0.0955 ± 0.012,-0.006 ± 0.02,-0.0105 ± 0.013,-0.0015 ± 0.0021,-0.011 ± 0.016,-0.0055 ± 0.015,0.008 ± 0.028,0.0195 ± 0.0021,0.017 ± 0.021
SAg:CD40,-0.015 ± 0.027,-0.006 ± 0.0028,-0.021 ± 0.018,-0.0055 ± 0.026,-0.014 ± 0.02,-0.0015 ± 0.0092,0.0085 ± 0.015,-0.022 ± 0.0028,0 ± 0.028,-0.052 ± 0.023,-0.003 ± 0.0057,0.0095 ± 0.013,0.004 ± 0.0042,0 ± 0.0071,-0.0275 ± 0.028,0 ± 0.0028,-0.056 ± 0.045,-0.028 ± 0.044
SAg:CD62E/E-Selectin,-0.025 ± 0.0085,0.011,0.008 ± 0.013,-0.026 ± 0.0042,-0.024 ± 0.0057,-0.024 ± 0.013,-0.0205 ± 0.012,-0.0195 ± 0.005,0.0625 ± 0.013,0.079 ± 0.016,-0.0135 ± 0.0064,-0.0185 ± 0.0064,0.0125 ± 0.044,0.0215 ± 0.011,0.007 ± 0.014,-0.0205 ± 0.018,-0.002 ± 0.0014,0.0175 ± 0.0078
SAg:CD69,-0.006 ± 0.0014,-0.0145 ± 0.0021,-0.008 ± 0.017,-0.01 ± 0.014,-0.0095 ± 0.03,0.018 ± 0.047,-0.042 ± 0.021,-0.012 ± 0.035,-0.043 ± 0.016,-0.085 ± 0.04,0.0065 ± 0.0064,0.015 ± 0.016,-0.0145 ± 0.013,-0.0095 ± 0.015,-0.0335 ± 0.033,-0.0145 ± 0.015,-0.0165 ± 0.015,0.005 ± 0.027
SAg:CXCL8/IL-8,0.008 ± 0.011,0.0115 ± 0.0078,0.0715 ± 0.043,-0.0025 ± 0.0092,-0.005 ± 0.0085,0.0335 ± 0.028,-0.0315 ± 0.013,0.006 ± 0.05,0.0095 ± 0.025,-0.167 ± 0.03,0.0115 ± 0.022,-0.005,0.014 ± 0.044,0.0115 ± 0.012,0.0405 ± 0.079,-0.0325 ± 0.03,-0.0065 ± 0.022,0.025 ± 0.098
